In brackets after ≈: the same amount, converted by molar mass. Blank lines part the entries; values can stand above or below the compound they belong to.
Key:
[1] = Dynamic Light Scattering (DLS) mean size of PACs; assay type: physicochemical; settings: ibuprofen formulations by direct dissolution, 2 h after preparation
[2] = cited from earlier work; for solubility in water: free drug, 25° C.
[3] = free drug; cited from earlier work
[4] = system: 3D7 cells synchronized at ring stage; assay: In vitro antimalarial growth inhibition assay (GIA), flow cytometry after 48 h; assay type: cell-based, P. falciparum; settings: Plasmodium falciparum, 3D7, 48 h
Protocol: Since P. falciparum I usually asynchronous during in vitro culture, the generation of highly synchronized parasite cultures is requested to investigate their pharmacological properties in vitro. […] Samples of the PACs were incubated with the cells for 48 h and then parasitemia was evaluated by flow cytometry after labelling parasite nuclei with fluorescence (growth inhibition assay, GIA).
PACs loaded with atovaquone were analysed with 3D7 cells synchronized at ring stage. Samples were incubated with the cells for 48 h and then parasitemia was evaluated by flow cytometry after labelling parasite nuclei with fluorescence (growth inhibition assay, GIA). The pharmacological activity of atovaquone is expressed in terms of drug concentration needed to inhibit 50% of the cell population (IC50) (FIG. 9).

plasma proteins = settings: in vivo; cited from earlier work
[5] = Evolution with time of optical density (Do at 405 nm) of curcumin solutions in PBS pH 7.4 at 37° C.; assay type: physicochemical; settings: PBS pH 7.4, 37° C.

Cumulant DLS diameter [1]: >1,000,000 nm
Macroscopic aspect 2 h after dissolution (ibuprofen 5 mg/mL, polymer 45 mg/mL, direct dissolution in water, room temperature): Macroscopic crystals
Compound: CC(C)Cc1ccc(C(C)C(=O)O)cc1 (stereo not shown) [Ibuprofen]
solubility in water [2]: 0.21 µg/mL (≈ 1.02 µM)

Compound: Ivermectin
LogP [3]: 5.83

Compound: CCCSc1nc(N[C@@H]2C[C@H]2c2ccc(F)c(F)c2)c2nnn([C@@H]3C[C@H](OCCO)[C@@H](O)[C@H]3O)c2n1 [Ticagrelor]
LogP [3]: 2.28

Compound: O=C1C(O)=C([C@H]2CC[C@H](c3ccc(Cl)cc3)CC2)C(=O)c2ccccc21 [Atovaquone]
IC50 [4]: 0.00084 µM
solubility class in water (free drug) [2]: practically insoluble
LogP [3]: 5.8
bound to plasma proteins (plasma proteins): 99.9%

Compound: COc1cc(/C=C/C(=O)CC(=O)/C=C/c2ccc(O)c(OC)c2)ccc1O [Curcumin, curcumin]
optical density (Do at 405 nm) ([5]; With BSA (1%), curcumin 2 μg/mL, 1 h): 0.275
optical density (Do at 405 nm) ([5]; With BSA (1%), curcumin 2 μg/mL, 24 h): 0.214
optical density (Do at 405 nm) ([5]; With BSA (1%), curcumin 2 μg/mL, 96 h): 0.437
optical density (Do at 405 nm) ([5]; With BSA (1%), curcumin 10 μg/mL, 1 h): 1.102
optical density (Do at 405 nm) ([5]; With BSA (1%), curcumin 10 μg/mL, 24 h): 1.007
optical density (Do at 405 nm) ([5]; With BSA (1%), curcumin 10 μg/mL, 96 h): 0.701
optical density (Do at 405 nm) ([5]; With BSA (1%), curcumin 20 μg/mL, 1 h): 1.875
optical density (Do at 405 nm) ([5]; With BSA (1%), curcumin 20 μg/mL, 24 h): 1.508
optical density (Do at 405 nm) ([5]; With BSA (1%), curcumin 20 μg/mL, 96 h): 0.899
optical density (Do at 405 nm) ([5]; Without BSA, curcumin 2 μg/mL, 1 h): 0.068
optical density (Do at 405 nm) ([5]; Without BSA, curcumin 2 μg/mL, 24 h): 0.019
optical density (Do at 405 nm) ([5]; Without BSA, curcumin 2 μg/mL, 96 h): 0.001
optical density (Do at 405 nm) ([5]; Without BSA, curcumin 10 μg/mL, 1 h): 0.321
optical density (Do at 405 nm) ([5]; Without BSA, curcumin 10 μg/mL, 24 h): 0.097
optical density (Do at 405 nm) ([5]; Without BSA, curcumin 10 μg/mL, 96 h): 0.064
optical density (Do at 405 nm) ([5]; Without BSA, curcumin 20 μg/mL, 1 h): 0.717
optical density (Do at 405 nm) ([5]; Without BSA, curcumin 20 μg/mL, 24 h): 0.253
optical density (Do at 405 nm) ([5]; Without BSA, curcumin 20 μg/mL, 96 h): 0.113
IC50 [4]: 14.2 µM
macroscopic aspect (curcumin 5 mg/ml, direct dissolution in aqueous phase (Example 3)): slightly yellow and less turbid suspension
solubility class in water (free drug) [2]: practically insoluble
solubility in water [2]: < 1 µg/mL

From patent publication US20240374740A1, “POLY AMPHIPHILIC COMPLEXES FOR THE DELIVERY OF A HYDROPHOBIC ACTIVE AGENT, COMPOSITIONS AND METHODS” (Université de Liège, priority 2021, published 2024)
